Assay results reported in US20250268826A1, “IONIZABLE LIPIDOID COMPOSITIONS AND THERAPEUTIC USES THEREOF” (Flagship Pioneering Innovations VII, LLC, priority 2023, published 2025).

Experiments:
Assay type in all cases: physicochemical
Details in all cases: hEPO mRNA, N:P 6
[1] = LNP size and polydispersity index (PDI) by dynamic light scattering (DLS)
[2] = LNP Zeta potential measured using a Zetasizer (Malvern)
[3] = Encapsulation efficiency (EE %) by fluorescence based Ribogreen assay
[4] = Table 1, LNP lipid:DSPC:Cholesterol:DMG-PEG2k 50:10:38.5:1.5 mol %
[5] = Table 3, LNP 50:10:38.5:1.5 mol %
[6] = Table 5, LNP 50:10:38.5:1.5 mol %
[7] = Table 5, LNP 60:0:38.5:1.5 mol %
[8] = Table 5, LNP Lipid:DSPC:Cholesterol:DMG-PEG2k 50:10:38.5:1.5 mol %
[9] = Table 6, LNP 50:10:38.5:1.5 mol %
[10] = Table 6, LNP 60:0:38.5:1.5 mol %
[11] = Table 6, LNP lipid:DSPC:Cholesterol:DMG-PEG2k 50:10:38.5:1.5 mol %

Compound	PDI [1, 6]	Size [1, 8]	Zeta potential [2, 6]	Encapsulation Efficiency % [3, 6]	further results
CCCCCCCCC(CCCCCC)C(=O)OCCN(CCOC(=O)C(CCCCCC)CCCCCCCC)C(=O)C(N)CO (centres unmarked) [Compound 130]	–	–	–	–	PDI [1, 4]: 0.146; Size [1, 4]: 74.2 nm; Zeta potential [2, 4]: −5.059 mV; Encapsulation Efficiency % [3, 4]: 95.1%
CCCCCCCC/C=C\CCCCCCCC(=O)OCCN(CCOC(=O)CCCCCCC/C=C\CCCCCCCC)C(=O)C(N)CO (centres unmarked) [Compound 132]	–	–	–	–	PDI [1, 4]: 0.15; Size [1, 4]: 75.4 nm; Zeta potential [2, 4]: −4.36 mV; Encapsulation Efficiency % [3, 4]: 92.9%
CCCCCCCCCCCC(=O)OCCN(CCOC(=O)CCCCCCCCCCC)C(=O)C(N)CO (centres unmarked) [Compound 134]	–	–	–	–	PDI [1, 4]: 0.321; Size [1, 4]: 87.1 nm; Zeta potential [2, 4]: 6.281 mV; Encapsulation Efficiency % [3, 4]: 90.5%
CCCCCCCCCC(=O)OCCN(CCOC(=O)CCCCCCCCC)C(=O)C(N)CO (centres unmarked) [Compound 135]	–	–	–	–	PDI [1, 4]: 0.228; Size [1, 4]: 111.3 nm; Zeta potential [2, 4]: 2.909 mV; Encapsulation Efficiency % [3, 4]: 89.8%
CCCCCCCCC(CCCCCC)C(=O)OCCN(CCOC(=O)C(CCCCCC)CCCCCCCC)C(=O)CNCCO (centres unmarked) [Compound 305]	0.05	59.3 nm	−0.5189 mV	99.5%	PDI [1, 5]: 0.051; Size ([1]; Table 3, LNP lipid:DSPC:Cholesterol:DMG-PEG2k 50:10:38.5:1.5 mol %): 53.3 nm; PDI [1, 7]: 0.098; Size [1, 7]: 52.7 nm; Zeta potential [2, 7]: −2.027 mV; Encapsulation Efficiency % [3, 5]: 99.3%; Encapsulation Efficiency % [3, 7]: 99.5%
CCCCCC(CCCCC)C(=O)OCCN(CCOC(=O)C(CCCCC)CCCCC)C(=O)CN [Compound 601]	0.185	83.8 nm	−4.878 mV	99.8%	–
CCCCCCC(CCCC)C(=O)OCCN(CCOC(=O)C(CCCC)CCCCCC)C(=O)CN (centres unmarked) [Compound 602]	0.337	84.8 nm	−5.94 mV	99.1%	–
CCCCCCCCC(CC)C(=O)OCCN(CCOC(=O)C(CC)CCCCCCCC)C(=O)CN (centres unmarked) [Compound 603]	0.213	71.7 nm	−3.116 mV	98.4%	–
CCCCCCCC(CCCCCCC)C(=O)OCCN(CCOC(=O)C(CCCCCCC)CCCCCCC)C(=O)CN [Compound 604]	0.102	208.5 nm	−7.347 mV	99.3%	PDI [1, 7]: 0.15; Size [1, 7]: 236.6 nm; Zeta potential [2, 7]: −3.753 mV; Encapsulation Efficiency % [3, 7]: 98%
CCCCCCCCCCCCC(CC)C(=O)OCCN(CCOC(=O)C(CC)CCCCCCCCCCCC)C(=O)CN (centres unmarked) [Compound 606]	0.457	57.2 nm	−2.662 mV	99.9%	–
CCCCCCCCCC(CCCCCCCCC)C(=O)OCCN(CCOC(=O)C(CCCCCCCCC)CCCCCCCCC)C(=O)CN [Compound 607]	–	68.9 nm	−12.44 mV	99.7%	–
CCCCCC(CCCCC)C(=O)OCCN(CCOC(=O)C(CCCCC)CCCCC)C(=O)C(C)N (centres unmarked) [Compound 608]	0.13	77.1 nm	−4.462 mV	97.7%	–
CCCCCCC(CCCC)C(=O)OCCN(CCOC(=O)C(CCCC)CCCCCC)C(=O)C(C)N (centres unmarked) [Compound 609]	–	98 nm	−4.452 mV	99.8%	–
CCCCCCCCC(CC)C(=O)OCCN(CCOC(=O)C(CC)CCCCCCCC)C(=O)C(C)N (centres unmarked) [Compound 610]	0.202	77.3 nm	−1.535 mV	99.7%	–
CCCCCCCC(CCCCCCC)C(=O)OCCN(CCOC(=O)C(CCCCCCC)CCCCCCC)C(=O)C(C)N (centres unmarked) [Compound 611]	0.24	155.4 nm	−5.841 mV	99.3%	PDI [1, 7]: 0.244; Size [1, 7]: 55.6 nm; Zeta potential [2, 7]: −5.555 mV; Encapsulation Efficiency % [3, 7]: 98.4%
CCCCCCCCCCC(CCCC)C(=O)OCCN(CCOC(=O)C(CCCC)CCCCCCCCCC)C(=O)C(C)N (centres unmarked) [Compound 612]	0.403	69.9 nm	−3.371 mV	99.8%	–
CCCCCCCCCCCCC(CC)C(=O)OCCN(CCOC(=O)C(CC)CCCCCCCCCCCC)C(=O)C(C)N (centres unmarked) [Compound 613]	0.236	53.7 nm	−6.511 mV	99.8%	–
CCCCCCCCCC(CCCCCCCCC)C(=O)OCCN(CCOC(=O)C(CCCCCCCCC)CCCCCCCCC)C(=O)C(C)N (centres unmarked) [Compound 614]	0.443	79.1 nm	−8.485 mV	99.7%	–
CCCCCC(CCCCC)C(=O)OCCN(CCOC(=O)C(CCCCC)CCCCC)C(=O)C(N)Cc1ccccc1 (centres unmarked) [Compound 615]	0.408	104.2 nm	−11.83 mV	98.7%	–
CCCCCCCCC(CC)C(=O)OCCN(CCOC(=O)C(CC)CCCCCCCC)C(=O)C(N)Cc1ccccc1 (centres unmarked) [Compound 617]	0.32	63.7 nm	−5.824 mV	99.1%	–
CCCCCCCC(CCCCCCC)C(=O)OCCN(CCOC(=O)C(CCCCCCC)CCCCCCC)C(=O)C(N)Cc1ccccc1 (centres unmarked) [Compound 618]	0.304	53.9 nm	−13.69 mV	97.9%	PDI [1, 7]: 0.116; Size [1, 7]: 211.9 nm; Zeta potential [2, 7]: −17.91 mV; Encapsulation Efficiency % [3, 7]: 92.8%
CCCCCCCCCCC(CCCC)C(=O)OCCN(CCOC(=O)C(CCCC)CCCCCCCCCC)C(=O)C(N)Cc1ccccc1 (centres unmarked) [Compound 619]	0.183	60.7 nm	−11.63 mV	98.1%	–
CCCCCCCCCCCCC(CC)C(=O)OCCN(CCOC(=O)C(CC)CCCCCCCCCCCC)C(=O)C(N)Cc1ccccc1 (centres unmarked) [Compound 620]	0.23	56.7 nm	−5.044 mV	99%	–
CCCCCCCCCC(CCCCCCCCC)C(=O)OCCN(CCOC(=O)C(CCCCCCCCC)CCCCCCCCC)C(=O)C(N)Cc1ccccc1 (centres unmarked) [Compound 621]	0.332	49.4 nm	−10.9 mV	98.9%	–
CCCCCCCCC(CCCCCC)C(=O)OCCN(CCOC(=O)C(CCCCCC)CCCCCCCC)C(=O)CCN (centres unmarked) [Compound 801]	–	–	–	–	PDI [1, 9]: 0.436; PDI [1, 10]: 0.169; Size [1, 10]: 93.6 nm; Size [1, 11]: 105.8 nm; Zeta potential [2, 9]: −1.5 mV; Zeta potential [2, 10]: 1.6 mV; Encapsulation Efficiency % [3, 9]: 98.5%; Encapsulation Efficiency % [3, 10]: 98.4%
CCCCCCCCC(CCCCCC)C(=O)OCCN(CCOC(=O)C(CCCCCC)CCCCCCCC)C(=O)CC(C)N (centres unmarked) [Compound 802]	–	–	–	–	PDI [1, 9]: 0.224; PDI [1, 10]: 0.195; Size [1, 10]: 87.6 nm; Size [1, 11]: 104.5 nm; Zeta potential [2, 9]: −1.8 mV; Zeta potential [2, 10]: 0.1 mV; Encapsulation Efficiency % [3, 9]: 98.4%; Encapsulation Efficiency % [3, 10]: 98.4%
CCCCCCCCC(CCCCCC)C(=O)OCCN(CCOC(=O)C(CCCCCC)CCCCCCCC)C(=O)CCCN (centres unmarked) [Compound 804]	–	–	–	–	PDI [1, 9]: 0.281; PDI [1, 10]: 0.147; Size [1, 10]: 81.1 nm; Size [1, 11]: 96 nm; Zeta potential [2, 9]: −1.7 mV; Zeta potential [2, 10]: 2.8 mV; Encapsulation Efficiency % [3, 9]: 98.3%; Encapsulation Efficiency % [3, 10]: 99.9%
